Laboratory results: ChEMBL document CHEMBL6127119 (J Med Chem, 2024)
≈ marks a conversion by molar mass, not a printed value.

What was measured:
Format in all cases: functional
Details in all cases: time 16-24 hrs
Escherichia coli = test: Antibacterial activity against Escherichia coli AB1157 incubated for 16 to 24 hrs by CLSI based broth microdilution method
Enterococcus faecium [1] = test: Antibacterial activity against vancomycin-resistant Enterococcus faecium harboring VanM phenotype incubated for 16 to 24 hrs by CLSI based broth microdilution method
Acinetobacter baumannii = test: Antibacterial activity against Carbapenem-resistant Acinetobacter baumannii clinical isolate incubated for 16 to 24 hrs by CLSI based broth microdilution method
Klebsiella pneumoniae = test: Antibacterial activity against Klebsiella pneumoniae clinical isolate incubated for 16 to 24 hrs by CLSI based broth microdilution method
Pseudomonas aeruginosa = test: Antibacterial activity against Pseudomonas aeruginosa PAO1 incubated for 16 to 24 hrs by CLSI based broth microdilution method
Enterococcus faecium [2] = test: Antibacterial activity against vancomycin-resistant Enterococcus faecium harboring VanB phenotype incubated for 16 to 24 hrs by CLSI based broth microdilution method
Staphylococcus aureus [3] = test: Antibacterial activity against methicillin-susceptible Staphylococcus aureus incubated for 16 to 24 hrs by CLSI based broth microdilution method
Staphylococcus aureus [4] = test: Antibacterial activity against vancomycin-intermediate Staphylococcus aureus incubated for 16 to 24 hrs by CLSI based broth microdilution method
Enterococcus faecium [5] = test: Antibacterial activity against vancomycin-resistant Enterococcus faecium harboring VanA phenotype incubated for 16 to 24 hrs by CLSI based broth microdilution method

Q: Which results are given for CN[C@H](CC(C)C)C(=O)N[C@H]1C(=O)N[C@@H](CC(N)=O)C(=O)N[C@H]2C(=O)N[C@H]3C(=O)N[C@H](C(=O)N[C@H](C(=O)O)c4cc(O)c(CNCCCCCCCCN)c(O)c4-c4cc3ccc4O)[C@H](O)c3ccc(c(Cl)c3)Oc3cc2cc(c3O[C@@H]2O[C@H](CO)[C@@H](O)[C@H](O)[C@H]2O[C@H]2C[C@](C)(N)[C@H](O)[C@H](C)O2)Oc2ccc(cc2Cl)[C@H]1O?
A: MIC (Escherichia coli): 128 µg/mL (≈ 79.7 µM); MIC (Enterococcus faecium [1]): 128 µg/mL (≈ 79.7 µM); MIC (Acinetobacter baumannii): 128 µg/mL (≈ 79.7 µM); MIC (Klebsiella pneumoniae): > 128 µg/mL; MIC (Pseudomonas aeruginosa): 128 µg/mL (≈ 79.7 µM); MIC (Enterococcus faecium [2]): 32 µg/mL (≈ 19.9 µM); MIC (Staphylococcus aureus [3]): 4 µg/mL (≈ 2.49 µM); MIC (Staphylococcus aureus [4]): 8 µg/mL (≈ 4.98 µM); MIC (Enterococcus faecium [5]): 128 µg/mL (≈ 79.7 µM)

Q: How did the MIC (Escherichia coli) turn out when CC(C)C[C@@H](N)C(=O)N[C@H]1C(=O)N[C@@H](CC(N)=O)C(=O)N[C@H]2C(=O)N[C@H]3C(=O)N[C@H](C(=O)N[C@H](C(=O)NCc4ccc(-c5ccccc5CN)cc4)c4cc(O)cc(O)c4-c4cc3ccc4O)[C@H](O)c3ccc(c(Cl)c3)Oc3cc2cc(c3O[C@@H]2O[C@H](CO)[C@@H](O)[C@H](O)[C@H]2O[C@H]2C[C@](C)(N)[C@H](O)[C@H](C)O2)Oc2ccc(cc2Cl)[C@H]1O was run?
A: The MIC was 8 µg/mL (≈ 4.91 µM).

Q: What about the MIC (Enterococcus faecium [1]) of the same molecule?
A: The MIC was 4 µg/mL (≈ 2.45 µM).

Q: What about the MIC (Acinetobacter baumannii) of the same molecule?
A: Its MIC is 16 µg/mL (≈ 9.82 µM).

Q: What about the MIC (Klebsiella pneumoniae) of the same molecule?
A: The MIC was > 128 µg/mL.

Q: What about the MIC (Pseudomonas aeruginosa) of the same molecule?
A: Its MIC is 32 µg/mL (≈ 19.6 µM).

Q: What about the MIC (Enterococcus faecium [2]) of the same molecule?
A: The MIC was 4 µg/mL (≈ 2.45 µM).

Q: And the MIC (Staphylococcus aureus [3])?
A: The MIC was 0.25 µg/mL (≈ 0.153 µM).

Q: What about the MIC (Staphylococcus aureus [4]) of the same molecule?
A: Its MIC is 0.5 µg/mL (≈ 0.307 µM).

Q: And the MIC (Enterococcus faecium [5])?
A: The MIC was 8 µg/mL (≈ 4.91 µM).

Q: Which results are given for CC(C)C[C@@H](N)C(=O)N[C@H]1C(=O)N[C@@H](CC(N)=O)C(=O)N[C@H]2C(=O)N[C@H]3C(=O)N[C@H](C(=O)N[C@H](C(=O)NCCOCCOCCN)c4cc(O)cc(O)c4-c4cc3ccc4O)[C@H](O)c3ccc(c(Cl)c3)Oc3cc2cc(c3O[C@@H]2O[C@H](CO)[C@@H](O)[C@H](O)[C@H]2O[C@H]2C[C@](C)(N)[C@H](O)[C@H](C)O2)Oc2ccc(cc2Cl)[C@H]1O?
A: MIC (Escherichia coli): 64 µg/mL (≈ 40.9 µM); MIC (Enterococcus faecium [1]): 64 µg/mL (≈ 40.9 µM); MIC (Acinetobacter baumannii): > 128 µg/mL; MIC (Klebsiella pneumoniae): > 128 µg/mL; MIC (Pseudomonas aeruginosa): > 128 µg/mL; MIC (Enterococcus faecium [2]): 64 µg/mL (≈ 40.9 µM); MIC (Staphylococcus aureus [3]): 0.5 µg/mL (≈ 0.319 µM); MIC (Staphylococcus aureus [4]): 4 µg/mL (≈ 2.56 µM); MIC (Enterococcus faecium [5]): 64 µg/mL (≈ 40.9 µM)

Q: CN[C@H](CC(C)C)C(=O)N[C@H]1C(=O)N[C@@H](CC(N)=O)C(=O)N[C@H]2C(=O)N[C@H]3C(=O)N[C@H](C(=O)N[C@H](C(=O)O)c4cc(O)c(CNCCCCCCCCNC(=N)N)c(O)c4-c4cc3ccc4O)[C@H](O)c3ccc(c(Cl)c3)Oc3cc2cc(c3O[C@@H]2O[C@H](CO)[C@@H](O)[C@H](O)[C@H]2O[C@H]2C[C@](C)(N)[C@H](O)[C@H](C)O2)Oc2ccc(cc2Cl)[C@H]1O was tested. Which MIC (Escherichia coli) did it give?
A: The MIC was 32 µg/mL (≈ 19.4 µM).

Q: What about the MIC (Enterococcus faecium [1]) of the same molecule?
A: Its MIC is 32 µg/mL (≈ 19.4 µM).

Q: What about the MIC (Acinetobacter baumannii) of the same molecule?
A: The MIC was 128 µg/mL (≈ 77.7 µM).

Q: And the MIC (Klebsiella pneumoniae)?
A: The MIC was > 128 µg/mL.

Q: And the MIC (Pseudomonas aeruginosa)?
A: Its MIC is 128 µg/mL (≈ 77.7 µM).

Q: And the MIC (Enterococcus faecium [2])?
A: The MIC was 128 µg/mL (≈ 77.7 µM).

Q: And the MIC (Staphylococcus aureus [3])?
A: The MIC was 1 µg/mL (≈ 0.607 µM).

Q: What about the MIC (Staphylococcus aureus [4]) of the same molecule?
A: The MIC was 2 µg/mL (≈ 1.21 µM).

Q: And the MIC (Enterococcus faecium [5])?
A: The MIC was 64 µg/mL (≈ 38.8 µM).

Q: Which MIC (Escherichia coli) does the source give for CC(C)C[C@@H](N)C(=O)N[C@H]1C(=O)N[C@@H](CC(N)=O)C(=O)N[C@H]2C(=O)N[C@H]3C(=O)N[C@H](C(=O)N[C@H](C(=O)N[C@H](CCCNC(=N)N)C(N)=O)c4cc(O)cc(O)c4-c4cc3ccc4O)[C@H](O)c3ccc(c(Cl)c3)Oc3cc2cc(c3O[C@@H]2O[C@H](CO)[C@@H](O)[C@H](O)[C@H]2O[C@H]2C[C@](C)(N)[C@H](O)[C@H](C)O2)Oc2ccc(cc2Cl)[C@H]1O here?
A: The MIC was 16 µg/mL (≈ 10.1 µM).

Q: And the MIC (Enterococcus faecium [1])?
A: The MIC was 64 µg/mL (≈ 40.2 µM).

Q: And the MIC (Acinetobacter baumannii)?
A: Its MIC is 64 µg/mL (≈ 40.2 µM).

Q: What about the MIC (Klebsiella pneumoniae) of the same molecule?
A: Its MIC is > 128 µg/mL.

Q: What about the MIC (Pseudomonas aeruginosa) of the same molecule?
A: Its MIC is 128 µg/mL (≈ 80.5 µM).

Q: And the MIC (Enterococcus faecium [2])?
A: The MIC was 32 µg/mL (≈ 20.1 µM).

Q: What about the MIC (Staphylococcus aureus [3]) of the same molecule?
A: Its MIC is 0.5 µg/mL (≈ 0.314 µM).

Q: What about the MIC (Staphylococcus aureus [4]) of the same molecule?
A: Its MIC is 16 µg/mL (≈ 10.1 µM).

Q: What about the MIC (Enterococcus faecium [5]) of the same molecule?
A: Its MIC is 32 µg/mL (≈ 20.1 µM).

Q: Which results are given for CC(C)C[C@@H](N)C(=O)N[C@H]1C(=O)N[C@@H](CC(N)=O)C(=O)N[C@H]2C(=O)N[C@H]3C(=O)N[C@H](C(=O)N[C@H](C(=O)NCCCCN)c4cc(O)cc(O)c4-c4cc3ccc4O)[C@H](O)c3ccc(c(Cl)c3)Oc3cc2cc(c3O[C@@H]2O[C@H](CO)[C@@H](O)[C@H](O)[C@H]2O[C@H]2C[C@](C)(N)[C@H](O)[C@H](C)O2)Oc2ccc(cc2Cl)[C@H]1O?
A: MIC (Escherichia coli): 32 µg/mL (≈ 21.3 µM); MIC (Enterococcus faecium [1]): 128 µg/mL (≈ 85 µM); MIC (Acinetobacter baumannii): > 128 µg/mL; MIC (Klebsiella pneumoniae): > 128 µg/mL; MIC (Pseudomonas aeruginosa): > 128 µg/mL; MIC (Enterococcus faecium [2]): 128 µg/mL (≈ 85 µM); MIC (Staphylococcus aureus [3]): 0.5 µg/mL (≈ 0.332 µM); MIC (Staphylococcus aureus [4]): 8 µg/mL (≈ 5.31 µM); MIC (Enterococcus faecium [5]): 64 µg/mL (≈ 42.5 µM)
